Data on three compounds can be found in ChEMBL document CHEMBL1140565, “Dipeptidyl alpha-fluorovinyl Michael acceptors: synthesis and activity against cysteine proteases” (Bioorg Med Chem Lett, 2007).

Structures are written as SMILES.

Assay [1] deals with Leishmania mexicana. Nature of the assay: Inhibition of Leishmania mexicana cysteine protease CBP2.8deltaCTE at 20 ug/mL.
Assay [2] relates to Leishmania mexicana. Put plainly: Inhibition of Leishmania mexicana cysteine protease CBP2.8deltaCTE at 2 ug/mL.

One may read the inhibition as how much of the control response was suppressed. For the compound `CC(C)(C)OC(=O)N[C@@H](Cc1ccccc1)/C(SCCc1ccccc1)=C(\F)S(=O)(=O)c1ccccc1`, the inhibition in assay [1] was 38.7%; in assay [2], 1.1%.

Take `O=C(N[C@H](/C=C/S(=O)(=O)c1ccccc1)Cc1ccccc1)[C@H](Cc1ccccc1)NC(=O)N1CCOCC1`: the inhibition in assay [1] was determined as 97%; in assay [2] it was 71.3%.

Regarding `CC(C)(C)OC(=O)N[C@@H](Cc1ccccc1)/C(SCCc1ccccc1)=C(/F)S(=O)(=O)c1ccccc1`, the inhibition in assay [1] was 15.1%; in assay [2] it was 0%.
